Results on 26 molecules are retold here after patent US12655106B2 (Eikonizo Therapeutics, Inc., priority 2021, dated 2026).

One test addresses T1, Full length Human HDAC8 (Homo sapiens, UniProt Q9BY41).
T1 construct: Full length Human HDAC8; HIS (N); host or cells: baculovirus expression system
T1 sequence (Q9BY41 1-377): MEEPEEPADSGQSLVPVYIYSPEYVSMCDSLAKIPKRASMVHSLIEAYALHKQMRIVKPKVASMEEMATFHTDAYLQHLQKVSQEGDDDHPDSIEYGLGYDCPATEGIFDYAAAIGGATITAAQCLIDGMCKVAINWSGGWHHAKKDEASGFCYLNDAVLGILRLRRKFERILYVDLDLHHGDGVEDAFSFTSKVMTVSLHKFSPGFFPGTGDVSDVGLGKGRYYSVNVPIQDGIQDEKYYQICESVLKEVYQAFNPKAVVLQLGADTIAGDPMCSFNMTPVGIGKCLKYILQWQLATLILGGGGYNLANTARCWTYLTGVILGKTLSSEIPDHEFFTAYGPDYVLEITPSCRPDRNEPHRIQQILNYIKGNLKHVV
In words: Caliper endpoint assay for HDAC enzymatic activity (HDAC8). It is filed as biochemical. Conditions: in vitro enzymatic, 30 min pre-incubation, 1 μM substrate peptide.

A further test addresses T2, Full length Human HDAC6 (Homo sapiens, UniProt Q9UBN7).
T2 construct: Full length Human HDAC6; FLAG (C); host or cells: baculovirus expression system
T2 sequence (Q9UBN7 1-1215): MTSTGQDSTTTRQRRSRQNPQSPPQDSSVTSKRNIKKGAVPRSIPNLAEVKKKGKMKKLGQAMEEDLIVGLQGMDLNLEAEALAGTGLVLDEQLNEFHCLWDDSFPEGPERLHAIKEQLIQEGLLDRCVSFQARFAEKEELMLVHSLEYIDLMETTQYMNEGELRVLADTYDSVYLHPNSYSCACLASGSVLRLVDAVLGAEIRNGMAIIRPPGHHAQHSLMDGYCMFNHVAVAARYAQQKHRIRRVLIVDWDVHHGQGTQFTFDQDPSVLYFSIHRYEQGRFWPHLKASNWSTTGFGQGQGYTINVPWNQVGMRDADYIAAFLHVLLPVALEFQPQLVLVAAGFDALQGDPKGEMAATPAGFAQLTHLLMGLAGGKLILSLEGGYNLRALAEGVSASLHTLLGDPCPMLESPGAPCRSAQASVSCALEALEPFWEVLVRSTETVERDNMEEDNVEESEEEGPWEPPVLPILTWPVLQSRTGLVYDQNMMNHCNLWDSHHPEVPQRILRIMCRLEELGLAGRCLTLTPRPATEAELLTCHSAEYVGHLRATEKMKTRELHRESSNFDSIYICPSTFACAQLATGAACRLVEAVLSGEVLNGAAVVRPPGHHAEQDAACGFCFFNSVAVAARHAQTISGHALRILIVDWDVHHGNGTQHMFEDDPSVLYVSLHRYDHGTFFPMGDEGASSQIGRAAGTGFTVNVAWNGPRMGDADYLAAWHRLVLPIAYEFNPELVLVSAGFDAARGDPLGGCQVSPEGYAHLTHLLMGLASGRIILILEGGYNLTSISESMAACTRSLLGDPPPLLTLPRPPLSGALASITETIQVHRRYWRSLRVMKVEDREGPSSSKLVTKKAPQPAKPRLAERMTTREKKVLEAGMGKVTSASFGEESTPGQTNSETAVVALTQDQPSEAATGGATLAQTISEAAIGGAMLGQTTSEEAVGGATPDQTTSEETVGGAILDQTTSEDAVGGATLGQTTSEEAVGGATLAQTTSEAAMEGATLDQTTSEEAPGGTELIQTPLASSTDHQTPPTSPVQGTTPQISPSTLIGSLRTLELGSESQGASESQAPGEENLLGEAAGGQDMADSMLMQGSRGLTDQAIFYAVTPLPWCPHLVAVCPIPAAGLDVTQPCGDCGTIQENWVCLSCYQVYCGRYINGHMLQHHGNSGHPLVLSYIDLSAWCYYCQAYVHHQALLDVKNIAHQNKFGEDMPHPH
In words: Caliper endpoint assay for HDAC enzymatic activity (HDAC6). The format is biochemical. The conditions noted are these: for IC50: in vitro enzymatic, Caliper endpoint assay, 30 min pre-incubation, 1 μM substrate peptide; for Selectivity (6 v 8): ratio of HDAC8 IC50/HDAC6 IC50.

Take `CC[C@H]1Cc2c(F)cc(C(=O)NO)cc2CN1CC1CCCCC1` (single isomer, unassigned) [Compound 518]: the IC50 (as a rule, the midpoint of a concentration-inhibition curve) against Full length Human HDAC8 was in the range of 1000 to 10000 nM. At Full length Human HDAC6, the IC50 lay within 1 to 100 nM and the “Selectivity (6 v 8)” value was “IV (IV: >100-1000)”.
The corresponding values for `O=C(NO)c1cc(F)c2c(c1)CCN([C@H]1CCC3(CCC3)C1)C2` (single isomer, unassigned) [Compound 383] are 10000 to 100000 nM, 1 to 100 nM and “V (V: >1000)”.
The corresponding values for `O=C(NO)c1ccc2c(c1)C[C@H]1COCCN1C2` [Compound 132] are 1000 to 10000 nM, 1 to 100 nM and “IV (IV: >100-1000)”.
For `O=C(NO)c1cc(F)c2c(c1)CCN(CC1C3CNCC1C3)C2` (stereo not drawn) [Compound 493], in that order: 10000 to 100000 nM, 1 to 100 nM and “IV (IV: >100-1000)”.
Consider `C[C@@H]1CC[C@@H]2c3c(F)cc(C(=O)NO)cc3CCN12` (single isomer, unassigned) [Compound 156], for which the IC50 against Full length Human HDAC8 was in the range of 1000 to 10000 nM; against Full length Human HDAC6 it was 100 to 1000 nM.
As for `O=C(NO)c1cc(F)c2c(c1)CCN(C1CCC3(CCCC3)CC1)C2` [Compound 193, 8-fluoro-2-spiro[4.5]decan-8-yl-3,4-dihydro-1H-isoquinoline-6-carbohydroxamic acid], on Full length Human HDAC8, the IC50 fell in the range of 10000 to 100000 nM. Further, on Full length Human HDAC6, the IC50 lay in the range of 1 to 100 nM and the “Selectivity (6 v 8)” value is given as “V (V: >1000)”.
`CC[C@@H]1Cc2c(F)cc(C(=O)NO)cc2CN1CC1CC2CCC(C1)N2C` (single isomer, unassigned) [Compound 571] yielded an IC50 against Full length Human HDAC8 of 1000 to 10000 nM. On Full length Human HDAC6, the IC50 lay in the range of 100 to 1000 nM and the “Selectivity (6 v 8)” value was “III (III: >10-100)”.
For `O=C(NO)c1cc(F)c2c(c1)CCN(CC1CC3(CCN(C4CC4)CC3)C1)C2` [Compound 470, 2-[(7-cyclopropyl-7-azaspiro[3.5]nonan-2-yl)methyl]-8-fluoro-3,4-dihydro-1H-isoquinoline-6-carbohydroxamic acid], in that order: 10000 to 100000 nM, 1 to 100 nM and “IV (IV: >100-1000)”.
In turn, `CC[C@H]1Cc2c(F)cc(C(=O)NO)cc2CN1CC12CC3CC(CC(C3)C1)C2` (single isomer, unassigned) [Compound 508] displayed an IC50 at Full length Human HDAC8 of 1000 to 10000 nM. In addition, at Full length Human HDAC6, the IC50 is 1 to 100 nM and the “Selectivity (6 v 8)” value is listed as “III (III: >10-100)”.
For `O=C(NO)c1cc(F)c2c(c1)CCN(C1CCC3(C1)CN(C1CC1)C3)C2` (stereo not drawn) [Compound 390, 2-(2-cyclopropyl-2-azaspiro[3.4]octan-6-yl)-8-fluoro-3,4-dihydro-1H-isoquinoline-6-carbohydroxamic acid], in that order: 10000 to 100000 nM, 100 to 1000 nM and “III (III: >10-100)”.
`CN1CC2(CC(N3CCc4cc(C(=O)NO)cc(F)c4C3)C2)C1` [Compound 290, 8-fluoro-N-hydroxy-2-(2-methyl-2-azaspiro[3.3]heptan-6-yl)-1,2,3,4-tetrahydroisoquinoline-6-carboxamide]: the half-maximal inhibitory concentration (IC50) at Full length Human HDAC8 lay in the range of 1000 to 10000 nM; against Full length Human HDAC6, 1 to 100 nM. Besides, the “Selectivity (6 v 8)” value at Full length Human HDAC6 is listed as “IV (IV: >100-1000)”.
The corresponding values for `CC[C@@H]1Cc2c(F)cc(C(=O)NO)cc2CN1C1CCCCC1` (single isomer, unassigned) [Compound 582] are 10000 to 100000 nM, 100 to 1000 nM and “III (III: >10-100)”.
The corresponding values for `O=C(NO)c1cc(F)c(CN2C3CCC2CC(=NO)C3)cc1F` [Compound 54] are 100 to 1000 nM, 1 to 100 nM and “III (III: >10-100)”.
Molecule `CC1(C)C[C@@H]2Cc3cc(C(=O)NO)cc(F)c3CN2C1` [Compound 126] registered an IC50 against Full length Human HDAC8 of 1000 to 10000 nM. For the same molecule, at Full length Human HDAC6, the IC50 was 100 to 1000 nM and the “Selectivity (6 v 8)” value is recorded as “III (III: >10-100)”.
Regarding `O=C(NO)c1cc(F)c2c(c1)CCN(C1CCC3(COC3)C1)C2` (stereo not drawn) [Compound 387, 8-fluoro-2-(2-oxaspiro[3.4]octan-6-yl)-3,4-dihydro-1H-isoquinoline-6-carbohydroxamic acid], the figures for the concentration for half-maximal inhibition (IC50) on Full length Human HDAC8 and on Full length Human HDAC6 were 10000 to 100000 nM and 1 to 100 nM, respectively. In addition, the “Selectivity (6 v 8)” value on Full length Human HDAC6 is “IV (IV: >100-1000)”.
The corresponding values for `CN1CC[C@@H](N2CCc3cc(C(=O)NO)cc(F)c3C2)CC12CCC2` (single isomer, unassigned) [Compound 438] are 1000 to 10000 nM, 1 to 100 nM and “IV (IV: >100-1000)”.
For `[2H]c1cc2c(cc1C(=O)NO)CCN(C1CC3(CCCCC3)C1)C2` [Compound 504, N-hydroxy-2-(spiro[3.5]nonan-2-yl)-1,2,3,4-tetrahydroisoquinoline-7-d-6-carboxamide], in that order: 10000 to 100000 nM, 100 to 1000 nM and “IV (IV: >100-1000)”.
`O=C(NO)c1cc(F)c2c(c1)CCN(C1CCC13COC3)C2` (stereo not drawn) [Compound 300, 8-fluoro-2-(2-oxaspiro[3.3]heptan-7-yl)-3,4-dihydro-1H-isoquinoline-6-carbohydroxamic acid] gave an IC50 on Full length Human HDAC8 of 1000 to 10000 nM. Further, at Full length Human HDAC6, the IC50 lay within 1 to 100 nM and the “Selectivity (6 v 8)” value is “IV (IV: >100-1000)”.
For `CC[C@@H](c1ccc(C(=O)NO)cc1F)N1CCC2(CCCCC2)C1` (single isomer, unassigned) [Compound 237], in that order: 1000 to 10000 nM, 100 to 1000 nM and “II (II: >1-10)”.
The corresponding values for `O=C(NO)c1cc(F)c2c(c1)CCN([C@@H]1CC[C@@]13CCOC3)C2` (single isomer, unassigned) [Compound 317] are 10000 to 100000 nM, 1 to 100 nM and “IV (IV: >100-1000)”.
For `O=C(NO)c1cc(F)c2c(c1)CCN([C@H]1CCN(C3CC3)C3(CCC3)C1)C2` (single isomer, unassigned) [Compound 439], in that order: 10000 to 100000 nM, 1 to 100 nM and “IV (IV: >100-1000)”.
Molecule `O=C(NO)c1cc(F)c2c(c1)CCN([C@H]1CCNC3(CCC3)C1)C2` (single isomer, unassigned) [Compound 435] returned an IC50 at Full length Human HDAC8 of 1000 to 10000 nM. Besides, at Full length Human HDAC6, the IC50 fell in the range of 1 to 100 nM and the “Selectivity (6 v 8)” value was “IV (IV: >100-1000)”.
For the molecule `O=C(NO)c1cc(F)c2c(c1)C[C@@H]1CC3(CCCCC3)CN1C2` (single isomer, unassigned) [Compound 136], the IC50 against Full length Human HDAC8 lay within 1000 to 10000 nM; against Full length Human HDAC6 it was 1 to 100 nM.
`O=C(NO)c1cc(F)c2c(c1)CCN(CC13CC(C1)N(C1CC1)C3)C2` [Compound 491, 2-[(2-cyclopropyl-2-azabicyclo[2.1.1]hexan-4-yl)methyl]-8-fluoro-3,4-dihydro-1H-isoquinoline-6-carbohydroxamic acid] came in with an IC50 at Full length Human HDAC8 of 10000 to 100000 nM. Further, on Full length Human HDAC6, the IC50 lay in the range of 1 to 100 nM and the “Selectivity (6 v 8)” value is “IV (IV: >100-1000)”.
For the molecule `C[C@H]1CC[C@@H]2c3c(F)cc(C(=O)NO)cc3CCN21` (single isomer, unassigned) [Compound 159], the IC50 against Full length Human HDAC8 lay in the range of 1000 to 10000 nM; at Full length Human HDAC6, 100 to 1000 nM.
The molecule `O=C(NO)c1cc(F)c2c(c1)CN(CC13CC4CC(CC(C4)O1)C3)CC2` [Compound 213, 2-(((1r,3s,5R,7S)-2-oxaadamantan-1-yl)methyl)-5-fluoro-N-hydroxy-1,2,3,4-tetrahydroisoquinoline-7-carboxamide] returned an IC50 against Full length Human HDAC8 of 100 to 1000 nM. Besides, on Full length Human HDAC6, the IC50 is 1 to 100 nM and the “Selectivity (6 v 8)” value is given as “III (III: >10-100)”.
